In the NIST ThermoML archive (doi:10.1021/acs.jced.5b00592):
Numbers after ± are expanded uncertainties.

Details: 101.33 kPa, Liquid, Vibrating tube method

Row | Structure (SMILES) | mass density (288.15 K) | mass density (293.15 K) | mass density (298.15 K) | mass density (303.15 K) | mass density (308.15 K) | mass density (313.15 K) | mass density (318.15 K) | mass density (323.15 K) | mass density (328.15 K) | mass density (333.15 K) | mass density (338.15 K) | mass density (343.15 K) | mass density (348.15 K) | mass density (353.15 K)
1 | CCCCCCCCCCCCn1cc[n+](C)c1.O=S(=O)([N-]S(=O)(=O)C(F)(F)F)C(F)(F)F | 1238.73 ± 1.4 kg/m3 | 1234.45 ± 1.4 kg/m3 | 1230.2 ± 1.4 kg/m3 | 1225.93 ± 1.3 kg/m3 | 1221.7 ± 1.3 kg/m3 | 1217.48 ± 1.3 kg/m3 | 1213.28 ± 1.3 kg/m3 | 1209.09 ± 1.3 kg/m3 | 1204.95 ± 1.3 kg/m3 | 1200.8 ± 1.3 kg/m3 | 1196.67 ± 1.3 kg/m3 | 1192.54 ± 1.3 kg/m3 | 1188.43 ± 1.3 kg/m3 | 1184.33 ± 1.2 kg/m3
2 | CCCCCCCCn1cc[n+](C)c1.O=S(=O)([N-]S(=O)(=O)C(F)(F)F)C(F)(F)F | 1329.44 ± 0.54 kg/m3 | 1324.99 ± 0.54 kg/m3 | 1320.54 ± 0.53 kg/m3 | 1316.08 ± 0.53 kg/m3 | 1311.64 ± 0.53 kg/m3 | 1307.23 ± 0.52 kg/m3 | 1302.82 ± 0.52 kg/m3 | 1298.45 ± 0.52 kg/m3 | 1294.08 ± 0.51 kg/m3 | 1289.73 ± 0.51 kg/m3 | 1285.38 ± 0.51 kg/m3 | 1281.05 ± 0.5 kg/m3 | 1276.72 ± 0.5 kg/m3 | 1272.41 ± 0.5 kg/m3
3 | CCCC[n+]1ccn(C)c1.O=S(=O)([N-]S(=O)(=O)C(F)(F)F)C(F)(F)F | 1443.95 ± 4 kg/m3 | 1439.13 ± 4 kg/m3 | 1434.32 ± 4 kg/m3 | 1429.51 ± 4 kg/m3 | 1424.73 ± 4 kg/m3 | 1419.98 ± 4 kg/m3 | 1415.23 ± 4 kg/m3 | 1410.5 ± 4 kg/m3 | 1405.78 ± 4 kg/m3 | 1401.09 ± 4 kg/m3 | 1396.41 ± 4 kg/m3 | 1391.74 ± 4 kg/m3 | 1387.07 ± 4 kg/m3 | 1382.43 ± 4 kg/m3
4 | CCCC[n+]1ccccc1.O=S(=O)([N-]S(=O)(=O)C(F)(F)F)C(F)(F)F [1-butylpyridinium bis[(trifluoromethyl)sulfonyl]imide] | 1457.74 ± 1.9 kg/m3 | 1452.97 ± 1.9 kg/m3 | 1448.23 ± 1.9 kg/m3 | 1443.6 ± 1.9 kg/m3 | 1438.91 ± 1.9 kg/m3 | 1434.25 ± 1.9 kg/m3 | 1429.62 ± 1.9 kg/m3 | 1425 ± 1.9 kg/m3 | 1420.41 ± 1.8 kg/m3 | 1415.82 ± 1.8 kg/m3 | 1411.23 ± 1.8 kg/m3 | 1406.74 ± 1.8 kg/m3 | 1402.15 ± 1.8 kg/m3 | 1397.61 ± 1.8 kg/m3
5 | CCCCCCCCn1cc[n+](C)c1.O=S(=O)([O-])C(F)(F)F [1-octyl-3-methylimidazolium trifluoromethanesulfonate] | 1200.83 ± 0.44 kg/m3 | 1197.12 ± 0.44 kg/m3 | 1193.39 ± 0.43 kg/m3 | 1189.64 ± 0.43 kg/m3 | 1185.9 ± 0.43 kg/m3 | 1182.17 ± 0.43 kg/m3 | 1178.44 ± 0.42 kg/m3 | 1174.72 ± 0.42 kg/m3 | 1171.02 ± 0.42 kg/m3 | 1167.34 ± 0.42 kg/m3 | 1163.66 ± 0.41 kg/m3 | 1159.99 ± 0.41 kg/m3 | 1156.33 ± 0.41 kg/m3 | 1152.68 ± 0.41 kg/m3
6 | CCC(=O)[O-].C[NH2+]CCO [2-hydroxy-N-methylethanaminium propionate] | – | 1068.13 ± 0.99 kg/m3 | – | 1061.16 ± 0.97 kg/m3 | – | 1054.19 ± 0.96 kg/m3 | – | 1047.12 ± 0.94 kg/m3 | – | 1039.96 ± 0.93 kg/m3 | – | 1032.71 ± 0.92 kg/m3 | – | 1025.34 ± 0.9 kg/m3
7 | CC(=O)[O-].C[NH2+]CCO [N-methyl-2-hydroxyethylammonium acetate] | – | 1099.6 ± 1.1 kg/m3 | – | 1093 ± 1 kg/m3 | – | 1086.4 ± 1 kg/m3 | – | 1079.7 ± 1 kg/m3 | – | 1072.9 ± 1 kg/m3 | – | 1066.1 ± 1 kg/m3 | – | 1059.1 ± 1 kg/m3
8 | CCCC(=O)[O-].C[NH2+]CCO [N-methyl-2-hydroxyethylammonium butanoate] | – | 1038.03 ± 0.93 kg/m3 | – | 1031.04 ± 0.91 kg/m3 | – | 1024.03 ± 0.9 kg/m3 | – | 1016.9 ± 0.88 kg/m3 | – | 1009.68 ± 0.87 kg/m3 | – | 1002.38 ± 0.86 kg/m3 | – | 994.97 ± 0.84 kg/m3
